Consider 33 molecules from patent US20110040088A1, “FUSED HETEROCYCLIC COMPOUNDS” (priority 2003, published 2011).

Counter-ions that a name gives are not always drawn. Like-named read-outs stand apart in the source and are kept apart here.

By Ki is commonly meant a measure of affinity in units of concentration, obtained from inhibition or displacement.

One experiment concerns the target 5-HT2A receptor (UniProt P28223). Nature of the experiment: 5-HT2A receptor radioligand binding ([3H]ketanserin).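 Also: competitive displacement binding on membranes, either from rat cerebral cortex or from NIH3T3 cells stably expressing human 5-HT2A.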
Experiment [1] addresses T1, human recombinant 5-HT2C receptor (Homo sapiens, UniProt P28335).
T1 sequence (P28335 33-458): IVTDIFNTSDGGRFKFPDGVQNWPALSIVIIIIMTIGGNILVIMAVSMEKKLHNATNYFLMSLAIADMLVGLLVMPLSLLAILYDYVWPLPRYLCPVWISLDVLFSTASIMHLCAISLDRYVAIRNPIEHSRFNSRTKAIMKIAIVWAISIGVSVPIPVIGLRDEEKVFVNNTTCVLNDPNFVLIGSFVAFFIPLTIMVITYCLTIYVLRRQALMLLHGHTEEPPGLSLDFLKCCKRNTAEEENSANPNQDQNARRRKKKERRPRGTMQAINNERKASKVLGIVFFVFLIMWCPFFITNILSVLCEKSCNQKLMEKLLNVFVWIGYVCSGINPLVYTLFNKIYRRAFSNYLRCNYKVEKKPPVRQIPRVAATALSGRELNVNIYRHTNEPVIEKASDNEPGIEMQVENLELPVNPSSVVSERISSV
The experiment is described as follows: 5-HT2C receptor radioligand binding ([3H]mesulergine, CHO membranes).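 Also: competitive displacement of the tritiated ligand, using membranes from CHO cells stably transfected with the human receptor.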
Description: (§1) Affinity for 5HT2 Receptor Binding Sites
(§2) Receptor binding was performed using the human recombinant 5-HT2A (GB: X57830), 5-HT2B (GB: Z36748) and 5-HT2c (GB: M81778) receptors. The affinity of the compounds for the 3 different human 5-HT2 receptor subtypes was evaluated by competitive radioligand binding assays using [^3H]ketanserin (h5-HT2A) or [^3H]mesulergine (h5-HT2B and h5-HT2c). The assays were performed on membranes prepared from NIH3T3 stably transfected with h5-HT2A or CHO stably transfected with h5-HT2B and h5-HT2C.

Experiment [2] concerns the target human recombinant 5-HT2B receptor (Homo sapiens, UniProt P41595). Nature of the experiment: 5-HT2B receptor radioligand binding ([3H]mesulergine, CHO membranes).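 Also: competitive displacement binding on membranes of CHO cells stably expressing the receptor.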
Description: as §1, §2
In the next experiment the target is T2, rat 5-HT7a receptor (Rattus norvegicus, UniProt P32305).
T2 construct: expressed in transfected cells
T2 sequence (P32305 whole entry): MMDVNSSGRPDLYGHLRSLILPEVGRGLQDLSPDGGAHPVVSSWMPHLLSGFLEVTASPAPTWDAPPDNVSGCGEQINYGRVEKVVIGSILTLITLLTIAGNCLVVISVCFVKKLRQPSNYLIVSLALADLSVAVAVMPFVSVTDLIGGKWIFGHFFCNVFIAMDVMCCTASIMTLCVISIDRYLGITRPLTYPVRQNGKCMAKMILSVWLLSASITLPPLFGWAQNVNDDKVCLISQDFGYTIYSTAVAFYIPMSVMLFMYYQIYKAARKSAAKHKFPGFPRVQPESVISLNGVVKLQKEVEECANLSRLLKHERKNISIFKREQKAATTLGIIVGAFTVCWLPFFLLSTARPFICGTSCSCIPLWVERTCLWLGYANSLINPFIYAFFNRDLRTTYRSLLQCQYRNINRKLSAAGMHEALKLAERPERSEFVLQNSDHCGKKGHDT
The experiment is described as follows: 5-HT7 receptor radioligand binding ([3H]5-CT, membranes of transfected HEK-293 cells). Particulars: rat 5-HT7a in HEK-293 membranes, 1 nM [3H]5-CT.

The mark [3] stands for this setting: read-out: Ki 5-HT2A, table does not say whether rat cortex or human recombinant (NIH3T3) receptor.

human recombinant 5-HT2B receptor, sequence (P41595 whole entry): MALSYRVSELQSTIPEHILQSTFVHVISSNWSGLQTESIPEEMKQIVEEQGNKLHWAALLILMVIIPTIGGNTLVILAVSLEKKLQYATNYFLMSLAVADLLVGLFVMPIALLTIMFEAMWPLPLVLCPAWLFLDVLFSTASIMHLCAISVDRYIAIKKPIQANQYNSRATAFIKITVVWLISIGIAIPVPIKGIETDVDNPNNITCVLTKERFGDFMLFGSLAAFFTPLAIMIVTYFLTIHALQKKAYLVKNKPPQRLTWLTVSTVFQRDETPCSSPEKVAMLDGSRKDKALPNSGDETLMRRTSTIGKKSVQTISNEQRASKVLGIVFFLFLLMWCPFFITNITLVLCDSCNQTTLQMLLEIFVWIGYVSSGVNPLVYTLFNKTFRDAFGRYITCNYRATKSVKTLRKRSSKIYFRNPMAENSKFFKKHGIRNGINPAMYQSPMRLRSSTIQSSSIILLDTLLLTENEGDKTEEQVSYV
Description for 5-HT2A receptor: The affinity of the compounds for the rat 5-HT2A receptor was evaluated by competitive radioligand binding assay using [^3H]ketanserine as the radioligand. The assay was performed on membranes from rat cortex as previously described (Schotte, A. et al., Psychopharmacology (1996) 124: 57-73). Briefly, brain tissue (rat cortex) was homogenized in 20 volumes per wet weight tissue of Tris-HCl buffer (50 mM, pH 7.4). The total membrane fraction was collected by centrifugation and washed by subsequent centrifugation runs (25 min at 25,000 g at 4° C.). Membranes were re-suspended in Tris-HCl buffer (50 mM, pH 7.4) containing 1 nM [^3H]ketanserin. Non-specific binding was estimated in the presence of 10 μM risperidone.

For `CCC(C)n1nc2c(c1-c1ccccc1)CCNCC2` (stereo not shown) [Example 298, 2-sec-Butyl-3-phenyl-2,4,5,6,7,8-hexahydro-1,2,6-triaza-azulene], the inhibition constant Ki on 5-HT2A receptor (setting [3]) worked out at 0.005 µM; in experiment [1] it was 0.06 µM; in experiment [2], 0.0065 µM; on rat 5-HT7a receptor, 0.05 µM.
For the molecule `CCc1ccc(-c2c3c(nn2CC)CCNCC3)cc1` [Example 257, 2-Ethyl-3-(4-ethyl-phenyl)-2,4,5,6,7,8-hexahydro-1,2,6-triaza-azulene], the Ki in experiment [1] amounted to 0.11 µM; in experiment [2], 0.002 µM; at rat 5-HT7a receptor it was 0.009 µM.
For the molecule `CC(C)(C)n1nc2c(c1-c1ccccc1)CCNCC2` [Example 215, 2-tert-Butyl-3-phenyl-2,4,5,6,7,8-hexahydro-1,2,6-triaza-azulene], the Ki was 0.008 µM on 5-HT2A receptor (setting [3]), 0.095 µM in experiment [2] and 0.03 µM at rat 5-HT7a receptor.
`CCC(C)n1nc2c(c1-c1ccc(C(F)(F)F)cc1)CCNCC2` (stereo not shown) [Example 301, 2-sec-Butyl-3-(4-trifluoromethyl-phenyl)-2,4,5,6,7,8-hexahydro-1,2,6-triaza-azulene]: the Ki is 0.0016 µM on 5-HT2A receptor (setting [3]), 0.1 µM in experiment [1], 0.003 µM in experiment [2] and 0.04 µM at rat 5-HT7a receptor.
Molecule `Cc1c(-c2ccccc2)c2c(n1Cc1ccccc1)CCNC2` [Example 17, 1-Benzyl-2-methyl-3-phenyl-4,5,6,7-tetrahydro-1H-pyrrolo[3,2-c]pyridine] registered an inhibitory constant (Ki) on rat 5-HT7a receptor of 0.07 µM.
Take `CCC(CC)n1nc2c(c1-c1ccccc1)CCNCC2` [Example 186, 2-(1-Ethyl-propyl)-3-phenyl-2,4,5,6,7,8-hexahydro-1,2,6-triaza-azulene]: the Ki at 5-HT2A receptor (setting [3]) was determined as 0.001 µM; in experiment [1] it was 0.02 µM; in experiment [2], 0.024 µM; on rat 5-HT7a receptor it was 0.061 µM.
Consider `Cc1ccc(-c2c3c(nn2C(C)C)CCNCC3)cc1` [Example 209, 2-Isopropyl-3-p-tolyl-2,4,5,6,7,8-hexahydro-1,2,6-triaza-azulene], for which the inhibition constant Ki at 5-HT2A receptor (setting [3]) worked out at 0.0011 µM; in experiment [1] (read-out: Ki 5-HT2C, h5-HT2C in CHO membranes, [3H]mesulergine) it was 0.012 µM; in experiment [2], 0.0014 µM; on rat 5-HT7a receptor, 0.006 µM.
For the molecule `c1cc(-c2c3c(nn2C2CCCC2)CCNCC3)co1` [Example 232, 2-Cyclopentyl-3-furan-3-yl-2,4,5,6,7,8-hexahydro-1,2,6-triaza-azulene], the Ki was determined as 0.025 µM at 5-HT2A receptor (setting [3]), 0.066 µM in experiment [1], 0.0005 µM in experiment [2] and 0.02 µM at rat 5-HT7a receptor.
In turn, `Clc1ccc(-c2nn(C3CCCCCCC3)c3c2CCNCC3)cc1` [Example 255, 3-(4-Chloro-phenyl)-1-cyclooctyl-1,4,5,6,7,8-hexahydro-1,2,6-triaza-azulene] had a Ki on rat 5-HT7a receptor of 0.06 µM.
Turning to `Cc1ccccc1Cn1nc(-c2ccc(Cl)cc2)c2c1CCNCCC2` [Example 174, 3-(4-Chloro-phenyl)-1-(2-methyl-benzyl)-4,5,6,7,8,9-hexahydro-1H-1,2,7-triaza-cyclopentacyclooctene], the Ki on rat 5-HT7a receptor was found to be 0.04 µM.
Same read-out and setting: as for `Clc1ccc(-c2nn(-c3ccccc3)c3c2CCNCC3)cc1` [Example 172, 3-(4-Chloro-phenyl)-1-phenyl-1,4,5,6,7,8-hexahydro-1,2,6-triaza-azulene], the figure is 0.037 µM; as for `Clc1ccc(-c2nn(CC3CCOCC3)c3c2CCNCC3)cc1` [Example 120, 3-(4-Chloro-phenyl)-1-(tetrahydro-pyran-4-ylmethyl)-1,4,5,6,7,8-hexahydro-1,2,6-triaza-azulene], 0.04 µM.
For the molecule `CC(C)Cn1nc(-c2ccc(Cl)cc2)c2c1CCNCC2` [Example 118, 3-(4-Chloro-phenyl)-1-isobutyl-1,4,5,6,7,8-hexahydro-1,2,6-triaza-azulene], the Ki was determined as 0.02 µM at 5-HT2A receptor (setting [3]) and 0.008 µM at rat 5-HT7a receptor.
In turn, `CCC(CC)n1nc2c(c1-c1cccs1)CCNCC2` [Example 191, 2-(1-Ethyl-propyl)-3-thiophen-2-yl-2,4,5,6,7,8-hexahydro-1,2,6-triaza-azulene] returned an inhibitory constant (Ki) on rat 5-HT7a receptor of 0.03 µM.
Same read-out and setting: as for `O=[N+]([O-])c1ccc(-c2cn(Cc3ccccc3)c3c2CNCC3)cc1` [Example 1, 1-Benzyl-3-(4-nitro-phenyl)-4,5,6,7-tetrahydro-1H-pyrrolo[3,2-c]pyridine], the figure is 0.12 µM; as for `Cc1ccc(-c2cn(Cc3ccccc3)c3c2CNCC3)cc1` [Example 18, 1-Benzyl-3-p-tolyl-4,5,6,7-tetrahydro-1H-pyrrolo[3,2-c]pyridine], 0.025 µM.
In the case of `COc1ccc(CN2CCc3[nH]nc(-c4ccc(Cl)cc4)c3CC2)cc1OC` [Example 167, 3-(4-Chloro-phenyl)-6-(3,4-dimethoxy-benzyl)-1,4,5,6,7,8-hexahydro-1,2,6-triaza-azulene], the Ki worked out at 10 µM in experiment [1], 0.35 µM in experiment [2] and 0.075 µM on rat 5-HT7a receptor.
`O=[N+]([O-])c1ccc(Cn2nc(-c3ccc(Cl)cc3)c3c2CCNCC3)cc1` [Example 98, 3-(4-Chloro-phenyl)-1-(4-nitro-benzyl)-1,4,5,6,7,8-hexahydro-1,2,6-triaza-azulene] returned a Ki on rat 5-HT7a receptor of 0.04 µM.
For `CCn1nc2c(c1-c1ccc(Cl)cc1)CCNCC2` [Example 64, 3-(4-Chloro-phenyl)-2-ethyl-2,4,5,6,7,8-hexahydro-1,2,6-triaza-azulene], the inhibition constant (Ki) worked out at 0.018 µM at 5-HT2A receptor (setting [3]) and 0.019 µM at rat 5-HT7a receptor.
For the molecule `CCCCn1cc(-c2ccc(C)cc2)c2c1CCNC2` [Example 22, 1-Butyl-3-p-tolyl-4,5,6,7-tetrahydro-1H-pyrrolo[3,2-c]pyridine], the Ki at rat 5-HT7a receptor amounted to 0.045 µM.
On to `CCC(CC)Cn1nc(-c2ccc(Cl)cc2)c2c1CCNCC2` [Example 114, 3-(4-Chloro-phenyl)-1-(2-ethyl-butyl)-1,4,5,6,7,8-hexahydro-1,2,6-triaza-azulene], for which the inhibition constant Ki amounted to 0.4 µM in experiment [1], 0.09 µM in experiment [2] and 0.032 µM on rat 5-HT7a receptor.
For the molecule `Clc1ccc(-c2nn(Cc3ccccc3)c3c2CCNCC3)cc1` [Example 273, 1-Benzyl-3-(4-chloro-phenyl)-1,4,5,6,7,8-hexahydro-1,2,6-triaza-azulene citrate salt], the Ki on 5-HT2A receptor (read-out: Ki 5-HT2A, table does not say whether rat cortex or human recombinant (NIH3T3) receptor, citrate salt) is 0.4 µM; on rat 5-HT7a receptor, 0.005 µM.
With `CCn1nc2c(c1-c1ccc(C)cc1)CCNCC2` [Example 214, 2-Ethyl-3-p-tolyl-2,4,5,6,7,8-hexahydro-1,2,6-triaza-azulene], the inhibitory constant (Ki) came to 0.17 µM in experiment [1], 0.002 µM in experiment [2] and 0.005 µM on rat 5-HT7a receptor.
`Clc1ccc(-c2nn(CC3CCCCC3)c3c2CCNCC3)cc1` [Example 117, 3-(4-Chloro-phenyl)-1-cyclohexylmethyl-1,4,5,6,7,8-hexahydro-1,2,6-triaza-azulene]: the Ki on rat 5-HT7a receptor is 0.02 µM.
Regarding `Fc1ccc(Cn2nc(-c3ccc(Cl)cc3)c3c2CCNCC3)c(F)c1` [Example 108, 3-(4-Chloro-phenyl)-1-(2,4-difluoro-benzyl)-1,4,5,6,7,8-hexahydro-1,2,6-triaza-azulene], the inhibition constant Ki was found to be 0.8 µM in experiment [1], 0.1 µM in experiment [2] and 0.009 µM on rat 5-HT7a receptor.
In the case of `c1ccc(Cn2cc(-c3ccccc3)c3c2CCNCC3)cc1` [Example 26, 1-Benzyl-3-phenyl-1,4,5,6,7,8-hexahydro-pyrrolo[2,3-d]azepine], affinity on rat 5-HT7a receptor was put at a Ki of 0.018 µM.
The same measure, in the same setting: under `CCCN1CCc2c(-c3ccccc3)nn(Cc3ccccc3)c2CC1` [Example 57, 1-Benzyl-3-phenyl-6-propyl-1,4,5,6,7,8-hexahydro-1,2,6-triaza-azulene] stands 0.015 µM.
Same read-out and setting: as for `C=CCCn1nc(-c2ccc(Cl)cc2)c2c1CCNCC2` [Example 111, 1-But-3-enyl-3-(4-chloro-phenyl)-1,4,5,6,7,8-hexahydro-1,2,6-triaza-azulene], the figure is 0.017 µM.
With `Clc1ccc(-c2c3c(nn2C2CCCCC2)CCNCC3)cc1` [Example 178, 3-(4-Chloro-phenyl)-2-cyclohexyl-2,4,5,6,7,8-hexahydro-1,2,6-triaza-azulene], the Ki at 5-HT2A receptor (setting [3]) was determined as 0.003 µM; in experiment [2] it was 0.003 µM; on rat 5-HT7a receptor, 0.085 µM.
As to `CC(C)n1nc2c(c1-c1ccc([N+](=O)[O-])cc1)CCNCC2` [Example 253, 2-Isopropyl-3-(4-nitro-phenyl)-2,4,5,6,7,8-hexahydro-1,2,6-triaza-azulene], the inhibitory constant (Ki) was determined as 0.625 µM in experiment [1], 0.025 µM in experiment [2] and 0.075 µM on rat 5-HT7a receptor.
With `CS(=O)(=O)Nc1ccc(Cn2nc(-c3ccccc3)c3c2CCNCC3)cc1` [Example 100, N-[4-(3-Phenyl-5,6,7,8-tetrahydro-4H-1,2,6-triaza-azulen-1-ylmethyl)-phenyl]-methanesulfonamide], the Ki on rat 5-HT7a receptor came to 0.03 µM.
The same measure, in the same setting: as for `Clc1ccc(-c2nn(Cc3ccc4c(c3)OCO4)c3c2CCNCC3)cc1` [Example 119, 1-Benzo[1,3]dioxo1-5-ylmethyl-3-(4-chloro-phenyl)-1,4,5,6,7,8-hexahydro-1,2,6-triaza-azulene], the figure is 0.039 µM.
On the same count and under the same terms, under `OCCCCCn1nc(-c2ccc(Cl)cc2)c2c1CCNCC2` [Example 87, 5-[3-(4-Chloro-phenyl)-5,6,7,8-tetrahydro-4H-1,2,6-triaza-azulen-1-yl]-pentan-1-ol] stands 0.033 µM.
